PubChem BioAssay AID850 (SRMLSC, 2007)
The source made the active and inactive calls. How the calls were made is not given here.

Assays:
[1] = tested on: Saccharomyces cerevisiae growth inhibition, permissive control; assay: yeast lifespan-shortening chemical project counter-assay, dose-response inhibition of growth under permissive conditions (AID 850);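 further: growth read as optical density after one day of incubation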
[2] = as above; conditions: Saccharomyces cerevisiae growth inhibition, permissive control, measured here: maximum growth inhibition, stronger effect = higher value

| SMILES | IC50 [1] | inhibition ([2]; at 50 µM) [%] | also measured |
| --- | --- | --- | --- |
| O=Nc1c(O)n(Cc2ccc(Cl)c(Cl)c2)c2ccccc12 | 43.1 µM | 58.3 | – |
| COc1ccc(-c2nncnn2)cc1 | 7.1 µM | 99.8 | – |
| c1ccc(-c2ccc(OCCCn3cncn3)cc2)cc1 | 34.1 µM | – | inhibition ([2]; at 25 µM): 57.7% |
| CC1(C)C[C@H]2C=C(C=O)[C@]3(C=O)C[C@]3(C)[C@H]2C1 | 4.38 µM | 100 | – |
| CC(Oc1ccc(Cl)cc1Cl)C(=O)NC1=NN(c2ccccc2)C(=O)C1 (configuration not stated) | 16.6 µM | 98.6 | – |
| CN1CSC(=S)N(C)C1 | 12.6 µM | 97 | – |
| O=c1cnn([C@@H]2O[C@H](CO)[C@@H](O)[C@H]2O)c(=O)[nH]1 | 16.6 µM | 68.7 | – |
| CCOc1ccccc1C1CC(c2ccc(Br)cc2)Nc2nc(N)nn21 (configuration not stated) | > 100 µM (inactive) | – | inhibition ([2]; at 0.781 µM): 10.2% |
| C=CCn1cnc2c(c1=O)c1nc3ccccc3nc1n2/N=C/c1cc(OC)c(OC)c(OC)c1 | 25.8 µM | – | inhibition ([2]; at 25 µM): 46.7% |
| Cc1cc([N+](=O)[O-])ccc1-c1ccc(C2Nc3ccccc3C(=O)N2O)o1 (configuration not stated) | > 100 µM (inactive) | – | inhibition ([2]; at 0.781 µM): 3.97% |
| COc1cc(C(=O)NC(=S)NNC(=O)c2cnccn2)cc(OC)c1OC | 23.3 µM | 59.3 | – |
| CC1CCCCN1S(=O)(=O)c1coc(C(N)=O)c1 (configuration not stated) | > 100 µM (inactive) | – | inhibition ([2]; at 3.125 µM): 3.72% |
| Clc1cccc(CN2COc3c(cc(Cl)c4cccnc34)C2)c1 | 6.88 µM | 101 | – |
| CCC(C)NC(=O)C1CCN(S(=O)(=O)c2cccc3cccnc23)CC1 (configuration not stated) | > 100 µM (inactive) | 12.2 | – |
| CC(C)(C)c1ccc(NC(=O)COC(=O)c2ccc([N+](=O)[O-])s2)cc1 | 49.5 µM | 56.3 | – |
| Cn1c2ccccc2c2cc(C(=O)O)ccc21 | > 100 µM (inactive) | 23.6 | – |
| CCCCCCCCCCCCCCCC(O)C(N)CO (configuration not stated) | 24.8 µM | 99.2 | – |
| CCOC(=O)c1c(NC(=S)Nc2ccc(Cl)cc2)sc2c1CCN(C)C2 | 8.2 µM | – | inhibition ([2]; at 25 µM): 99.8% |
| O=C1NCCCC1C(=O)N/N=C/c1cccc(O)c1 (configuration not stated) | > 100 µM (inactive) | – | inhibition ([2]; at 1.563 µM): 16% |
| COc1ccc(OC)c(-c2c3cc(O)c(=O)cc-3oc3cc(O)c(O)cc23)c1 | 28.1 µM | 63.5 | – |
| CN1CCN(C2=Cc3ccc(Cl)cc3Sc3ccc(F)cc32)CC1 | 27.2 µM | 99.8 | – |

| SMILES | IC50 [1] | inhibition ([2]; at 50 µM) [%] | also measured |
| --- | --- | --- | --- |
| O=c1cc(-c2ccccc2)[nH]n1-c1nc2ccccc2[nH]1 | 13.3 µM | 97.3 | – |
| N/C(Cc1ccc(Cl)cc1)=N\OC(=O)C1CCCCC1 | 15.8 µM | 98.8 | – |
| CCC(C)N1CC23C=CC(O2)C(C(=O)OC)C3C1=O (configuration not stated) | > 100 µM (inactive) | – | inhibition ([2]; at 0.098 µM): 10.6% |
| COc1ccccc1NC(=O)Cc1noc(CSc2cccc[n+]2[O-])n1 | 21.9 µM | 97.7 | – |
| OC(COc1ccc2ccccc2c1Br)Cn1cnc(-c2ccccc2)c1 (configuration not stated) | > 100 µM (inactive) | 20.9 | – |
| O=C(OCn1ncc(Br)c(Br)c1=O)c1ccccc1Cl | > 100 µM (inactive) | – | inhibition ([2]; at 0.781 µM): 10.5% |
| Clc1ccc(N/N=C/c2cccnc2)cc1 | 19 µM | – | inhibition ([2]; at 25 µM): 78.3% |
| COc1cc(Br)cc(/C=N/c2ncn[nH]2)c1O | 18.3 µM | 97.8 | – |
| O=C(OCn1ncc(Cl)c(Cl)c1=O)c1cccc(C(F)(F)F)c1 | > 100 µM (inactive) | 12.7 | – |
| CC1=CC(=O)c2ccccc2C1=O | 17.7 µM | 88.6 | – |
| O=C(N/N=C/c1sc2ccccc2c1O)c1cccc2ccccc12 | 15.2 µM | 93.6 | – |
| O=C(c1ccccc1)c1ccc2nc(N3CCCCC3)c3nncn3c2c1 | > 100 µM (inactive) | – | inhibition ([2]; at 0.195 µM): 14.9% |
| Cc1cc(-c2ccco2)c(C#N)c2nc3ccccc3n12 | 8.64 µM | 77.8 | – |
| Cc1cc(=O)[nH]c(-n2nc(C)cc2C)n1 | 15.4 µM | 99.6 | – |
| Cc1ccc(/C=C/C(=O)c2ccccc(=O)c2O)cc1C | 4.5 µM | – | inhibition ([2]; at 25 µM): 98.9% |
| Cc1ccc(-n2c(C)cc(C(=O)COC(=O)c3ccc[nH]c3=O)c2C)cc1C | 10.8 µM | 99.6 | – |
| Oc1c(Br)cc(Br)cc1/C=N/c1nc2c(s1)CCCC2 | 5.27 µM | 98.5 | – |
| CCOC(=O)c1c(NC(=O)C(C)Sc2cccc[n+]2[O-])sc2c1CCN(Cc1ccccc1)C2 (configuration not stated) | 16.3 µM | 98.6 | – |
| Cc1cccc(-c2nnc3sc(-c4ccccc4C)nn23)c1 | > 100 µM (inactive) | 29.1 | – |
| COc1cc(CNCCN2CCOCC2)ccc1OCc1cccc(Cl)c1 | > 100 µM (inactive) | – | inhibition ([2]; at 25 µM): 12.3% |
